Laboratory results taken from ChEMBL document CHEMBL4340544, “Discovery of 4,6-bis(benzyloxy)-3-phenylbenzofuran as a novel Pin1 inhibitor to suppress hepatocellular carcinoma via upregulating microRNA biogenesis” (Bioorg Med Chem, 2019).
Activity calls are given as the source filed them. The calls are words filed in the database; no cut-off is given here.

Columns and labels:
[1] = target: T1, Peptidyl-prolyl cis-trans isomerase NIMA-interacting 1 (Homo sapiens, UniProt Q13526); test: Inhibition of N-terminal 6-His tagged full length Pin1 (unknown origin) expressed in Escherichia coli at 10 uM using Suc-AEPF-pNA as substrate preincubated for 10 mins followed by substrate addition and measured for 180 secs by spectrophotometry relative to untreated control
[2] = target: T1, Peptidyl-prolyl cis-trans isomerase NIMA-interacting 1; test: Inhibition of N-terminal 6-His tagged full length Pin1 (unknown origin) expressed in Escherichia coli using Suc-AEPF-pNA as substrate preincubated for 10 mins followed by substrate addition and measured for 180 secs by spectrophotometry
[3] = target: Peptidyl-prolyl cis-trans isomerase NIMA-interacting 4 (Homo sapiens) (UniProt Q9Y237); test: Inhibition of recombinant N-terminal His6-tagged Pin4 (unknown origin) expressed in Escherichia coli at 1 to 50 uM using Suc-AEPF-pNA as substrate preincubated for 10 min followed by substrate addition measured for 180 secs
[4] = target: T1, Peptidyl-prolyl cis-trans isomerase NIMA-interacting 1; test: Inhibition of Pin1 in human SKHEP1 cells assessed as increase in miR-122 expression at 2.5 uM incubated for 36 hrs by quantitative RT PCR analysis; assay type: cell-based
SNU-423 = test: Cytotoxicity against human SNU423 cells assessed as reduction in cell viability by MTT assay; assay type: functional, cell-based
[5] = target: Peptidyl-prolyl cis-trans isomerase FKBP1A (Homo sapiens) (UniProt P62942); test: Inhibition of recombinant N-terminal His6-tagged FKBP12 (unknown origin) expressed in Escherichia coli at 1 to 50 uM using Suc-AEPF-pNA as substrate preincubated for 10 min followed by substrate addition measured for 180 secs
[6] = target: T1, Peptidyl-prolyl cis-trans isomerase NIMA-interacting 1; test: Inhibition of Pin1 in human SKHEP1 cells assessed as increase in cytoplasm distribution of XPO5 at 2.5 uM incubated for 36 hrs by DAPI staining based confocal microscopic analysis; assay type: cell-based
[7] = target: T1, Peptidyl-prolyl cis-trans isomerase NIMA-interacting 1; test: Inhibition of Pin1 in human SKHEP1 cells assessed as increase in miR-29b expression at 2.5 uM incubated for 36 hrs by quantitative RT PCR analysis; assay type: cell-based
SK-HEP1 [8] = test: Cytotoxicity against human SKHEP1 cells assessed as reduction in cell viability by MTT assay; assay type: functional, cell-based
[9] = target: Peptidyl-prolyl cis-trans isomerase A (Homo sapiens) (UniProt P62937); test: Inhibition of recombinant N-terminal His6-tagged Cyclophilin A (unknown origin) expressed in Escherichia coli at 1 to 50 uM using Suc-AEPF-pNA as substrate preincubated for 10 min followed by substrate addition measured for 180 secs
[10] = target: T1, Peptidyl-prolyl cis-trans isomerase NIMA-interacting 1; test: Inhibition of recombinant N-terminal His6-tagged Pin1 (unknown origin) expressed in Escherichia coli at 1 to 50 uM using Suc-AEPF-pNA as substrate preincubated for 10 min followed by substrate addition measured for 180 secs
SK-HEP1 [11] = test: Antiproliferation activity against human SKHEP1 cells assessed as reduction in colony formation at 2.5 uM measured after 7 days by crystal violet staining based microscopic analysis; assay type: functional, cell-based

T1 sequence (Q13526 whole entry): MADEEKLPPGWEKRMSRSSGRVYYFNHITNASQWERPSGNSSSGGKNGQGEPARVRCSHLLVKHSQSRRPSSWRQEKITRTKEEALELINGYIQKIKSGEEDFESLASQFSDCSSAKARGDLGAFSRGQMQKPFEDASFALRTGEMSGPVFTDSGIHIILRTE
Peptidyl-prolyl cis-trans isomerase A (Homo sapiens), sequence (P62937 whole entry, looked up): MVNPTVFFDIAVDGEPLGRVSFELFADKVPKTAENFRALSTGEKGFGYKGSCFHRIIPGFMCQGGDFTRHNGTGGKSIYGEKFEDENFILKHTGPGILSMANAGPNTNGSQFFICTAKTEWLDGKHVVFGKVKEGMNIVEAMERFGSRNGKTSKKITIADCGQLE
Peptidyl-prolyl cis-trans isomerase FKBP1A (Homo sapiens), sequence (P62942 whole entry, looked up): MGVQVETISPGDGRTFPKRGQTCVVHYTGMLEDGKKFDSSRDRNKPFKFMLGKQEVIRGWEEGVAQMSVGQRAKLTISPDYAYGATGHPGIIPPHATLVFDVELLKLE
Peptidyl-prolyl cis-trans isomerase NIMA-interacting 4 (Homo sapiens), sequence (Q9Y237 whole entry): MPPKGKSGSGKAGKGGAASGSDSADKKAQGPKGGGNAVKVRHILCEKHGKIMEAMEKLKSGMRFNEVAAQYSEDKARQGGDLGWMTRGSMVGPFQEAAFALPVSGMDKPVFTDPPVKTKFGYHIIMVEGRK

Structure (SMILES) | inhibition [1] | other results
Cc1ccc(-c2coc3c(C)c(C)ccc23)cc1 | 64.6% | –
Clc1cc(Cl)c2occ(-c3ccccc3)c2c1 | 16.2% | –
Brc1ccc2occ(-c3ccccc3)c2c1 | 19.5% | –
COc1cccc2c(-c3ccccc3)coc12 | 22.2% | –
COc1ccc2c(-c3ccccc3)coc2c1 | – | IC50 [2]: 2.23 µM
COc1cc(OC)c2c(C)coc2c1 | 45.9% | –
COc1cccc(-c2coc3ccccc23)n1 | 34.8% | –
c1coc(-c2coc3ccccc23)c1 | 22.2% | –
Clc1ccc(-c2coc3ccccc23)cc1 | 18.3% | –
Cc1cccc2c(-c3ccccc3)c(-c3ccccc3)oc12 | 19.6% | –
Oc1ccc2occ(-c3ccccc3)c2c1 | 28% | –
CC(C)(C)c1ccc2occ(-c3ccc(Br)cc3)c2c1 | 28.9% | –
COc1ccc2occ(-c3ccc(F)cc3)c2c1 | 30.7% | –
Clc1cccc2c(-c3ccccc3)c(-c3ccccc3)oc12 | 13.6% | –
Cc1ccc2oc(-c3ccccc3)c(-c3ccccc3)c2c1 | 13.9% | –
c1ccc2c(-c3ccsc3)coc2c1 | 43.5% | –
c1ccc(COc2cc(OCc3ccccc3)c3c(-c4ccccc4)coc3c2)cc1 | 75.4% | inhibition [3]: inactive; inhibition [4]: Active; IC50 (SNU-423): 2.73 µM; IC50 [2]: 0.874 µM; inhibition [5]: inactive; inhibition [6]: Active; inhibition [7]: Active; IC50 (SK-HEP1 [8]): 1.14 µM; inhibition [9]: inactive; inhibition [10]: Active; Activity (SK-HEP1 [11]): Active
Clc1ccc2occ(-c3ccccc3)c2c1 | 19.2% | –
Clc1ccc2oc(-c3ccccc3)c(-c3ccccc3)c2c1 | 22.9% | –
COc1cc(OC)c2c(-c3ccccc3)coc2c1 | 69.6% | –
c1ccc(-c2coc3ccccc23)cc1 | 12.4% | –
COc1ccc2oc(-c3ccccc3)c(-c3ccccc3)c2c1 | 25.7% | –

Structure (SMILES) | inhibition [1] | other results
COc1ccc2occ(-c3ccc(C)cc3)c2c1 | 29.8% | –
COc1ccc(-c2coc3ccc(C#N)cc23)cc1 | 38.2% | –
COc1cccc2occ(-c3ccccc3)c12 | 59.5% | –
Cc1ccc(-c2coc3c(Cl)cc([N+](=O)[O-])cc23)cc1 | 30.3% | –
Cc1ccc(-c2coc3ccc(O)cc23)cc1 | 33.1% | –
Oc1ccc2occ(-c3ccc(Cl)cc3)c2c1 | 13.8% | –
COc1ccc(-c2coc3ccc([N+](=O)[O-])cc23)cc1 | 43.7% | –
COc1ccc2occ(-c3ccc(C)c(C)c3)c2c1 | 23.7% | –
COc1ccc2occ(-c3ccc(Cl)cc3)c2c1 | 18% | –
O=[N+]([O-])c1ccc2occ(-c3cccc4ccccc34)c2c1 | 14% | –
N#Cc1ccc2occ(-c3ccc4c(c3)OCO4)c2c1 | 46.9% | –
O=C1C=CC(=O)c2c(O)cccc21 | 52.6% | –
Oc1ccc2occ(-c3ccc(F)cc3)c2c1 | 23.8% | –
c1ccc(-c2oc3ccccc3c2-c2ccccc2)cc1 | 15.8% | –
Cc1ccc(-c2coc3ccc([N+](=O)[O-])cc23)cc1 | 32.6% | –
COc1ccc2c(C)coc2c1 | 65.1% | –
CC(C)(C)c1ccc2occ(-c3ccccc3)c2c1 | 11% | –
Cc1ccc(-c2coc3ccc(O)cc23)cc1C | 27.8% | –
COc1ccc2occ(-c3ccccc3)c2c1 | 27% | –
O=[N+]([O-])c1ccc2occ(-c3ccc4c(c3)OCO4)c2c1 | 23.4% | –
CC(C)(C)c1ccc2c(-c3ccc4c(c3)OCO4)coc2c1 | 63.7% | –
COc1ccc(-c2coc3ccccc23)cc1 | 54.8% | –
